The text below walks through data of ChEMBL document CHEMBL1157637, “Potent DNA-directed alkylating agents: Synthesis and biological activity of phenyl N-mustard-quinoline conjugates having a urea or hydrazinecarboxamide linker” (Bioorg Med Chem, 2010).

Data set [1] has as its system CCRF-CEM. As to the kind of experiment: Cytotoxicity against human CCRF-CEM cells after 72 hrs by XTT assay. Type of data set: functional, cell-based.
The test system of data set [2] is CCRF-CEM. As to the kind of experiment: Cytotoxicity against taxol-resistant human CCRF-CEM cells after 72 hrs by XTT assay. The format is functional, cell-based.
Data set [3] relates to CCRF-CEM. As to the kind of experiment: Cytotoxicity against vinblastine-resistant human CCRF-CEM cells after 72 hrs by XTT assay. Type of data set: functional, cell-based.
Data set [4] relates to CCRF-CEM. The experiment in a line: Selectivity ratio of IC50 for taxol-resistant human CCRF-CEM cells to IC50 for human CCRF-CEM cells. Type of data set: functional.
The subject of data set [5] is CCRF-CEM. The experiment in a line: Selectivity ratio of IC50 for vinblastine-resistant human CCRF-CEM cells to IC50 for human CCRF-CEM cells. Type of data set: functional.
Data set [6] relates to MX1. As to the kind of experiment: Cytotoxicity against human MX1 cells after 72 hrs by SRB assay. The format is functional, cell-based. To be noted: MX1, 72 h.
The subject of the next data set is HCT-116. As to the kind of experiment: Cytotoxicity against human HCT116 cells after 72 hrs by SRB assay. To be noted: HCT-116, 72 h. Type of data set: functional, cell-based.
Data set [7] is described as follows: Cytotoxicity against human H1299 cells after 72 hrs by alamar blue assay. To be noted: NCI-H1299, 72 h. The format is functional, cell-based.
A short description of data set [8]: Cytotoxicity against human CL1-5 cells after 72 hrs by alamar blue assay. The following applies: CL1-5, 72 h. The format is functional, cell-based.
Data set [9] can be described thus: Cytotoxicity against human CL1-0 cells after 72 hrs by alamar blue assay. Type of data set: functional, cell-based. The following applies: CL1-0, 72 h.
Another data set concerns PC-3. As to the kind of experiment: Cytotoxicity against human PC3 cells after 72 hrs by alamar blue assay. Type of data set: functional, cell-based. To be noted: PC-3, 72 h.
Another data set has as its system MCF7. The experiment in a line: Cytotoxicity against human MCF7 cells after 72 hrs by alamar blue assay. To be noted: MCF7, 72 h. Type of data set: functional, cell-based.
Data set [10] relates to Nucleic Acid. The experiment in a line: Binding affinity to pEGFP-N1 DNA assessed as formation of interstrand cross-links with DNA by alkaline gel shift assay. The format is nucleic-acid assay.
For the next data set, the system named is NCI/ADR-RES. The experiment in a line: Antitumor activity against human MCF7/ADR cells xenografted in nu/nu nude mouse at 100 mg/kg, iv administered as injection in Q2D x 6 schedule. The format is functional, organism-based. Further details: dose 100 mg/kg.
For data set [11], the system named is MX1. As to the kind of experiment: Antitumor activity against human MX1 cells xenografted in nu/nu nude mouse assessed as complete tumor remission at 150 mg/kg, iv administered as injection in Q2D x 5 schedule measured on day 16. Details: dose 150 mg/kg. The format is functional, organism-based.
The test system of data set [12] is MX1. As to the kind of experiment: Antitumor activity against human MX1 cells xenografted in nu/nu nude mouse assessed as complete tumor remission at 150 mg/kg, iv administered as injection in Q2D x 5 schedule measured on day 70. Type of data set: functional, organism-based. Further details: dose 150 mg/kg.
The subject of data set [13] is Mus musculus. As to the kind of experiment: Toxicity in nu/nu nude mouse assessed as body weight loss at 150 mg/kg, iv administered as injection in Q2D x 5 schedule measured on day 16. The format is organism-based. Further details: dose 150 mg/kg, route intravenous. To be noted: in vivo.
In data set [14] the test system is Mus musculus. The experiment in a line: Toxicity in nu/nu nude mouse assessed as body weight loss at 150 mg/kg, iv administered as injection in Q2D x 5 schedule measured on day 18. Type of data set: organism-based. Further details: dose 150 mg/kg, route intravenous. The following applies: in vivo.
Data set [15] relates to Mus musculus. As to the kind of experiment: Toxicity in nu/nu nude mouse assessed as body weight loss at 100 mg/kg, iv administered as injection in Q2D x 6 schedule. The format is organism-based. Further details: dose 100 mg/kg, route intravenous. To be noted: in vivo.
The nature of data set [16]: Metabolic stability in rat plasma assessed as half life. Type of data set: ADME, cell-free.
The test system of data set [17] is Nucleic Acid. The experiment in a line: Binding affinity to DNA in human H1299 cells assessed as formation of DNA cross-links after irradiation by modified single cell gel electrophoresis comet assay. Type of data set: cell-based.
Data set [18] relates to Nucleic Acid. As to the kind of experiment: Binding affinity to DNA in human H1299 cells assessed as formation of DNA cross-links at 10 uM followed by irradiation by modified single cell gel electrophoresis comet assay. Type of data set: cell-based.
The subject of data set [19] is Nucleic Acid. The experiment in a line: Binding affinity to DNA in human H1299 cells assessed as formation of DNA cross-links at 200 uM followed by irradiation by modified single cell gel electrophoresis comet assay. Type of data set: cell-based.
Data set [20] relates to MX1. As to the kind of experiment: Antitumor activity against human MX1 cells xenografted in nu/nu nude mouse assessed as complete tumor remission at 100 mg/kg, iv administered as injection in Q2D x 5 schedule measured on day 18. The format is functional, organism-based. Details: dose 100 mg/kg.
Data set [21] concerns MX1. As to the kind of experiment: Antitumor activity against human MX1 cells xenografted in nu/nu nude mouse assessed as complete tumor remission at 100 mg/kg, iv administered as injection in Q2D x 5 schedule measured on day 70. Type of data set: functional, organism-based. Details: dose 100 mg/kg.
The test system of data set [22] is Mus musculus. The experiment in a line: Toxicity in nu/nu nude mouse assessed as body weight loss at 100 mg/kg, iv administered as injection in Q2D x 5 schedule measured on day 16. The format is organism-based. Details: dose 100 mg/kg, route intravenous. The following applies: in vivo.

SMILES strings stand for the structures. Calls of active or inactive are those of the source. No cut-off for these calls is given here.

Consider `COc1cccc(-c2cc(NC(=O)NNc3ccc(N(CCCl)CCCl)cc3)c3cc(OC)ccc3n2)c1`, for which the IC50 in the data set on CCRF-CEM [1] is 0.552 µM; in the data set on CCRF-CEM [2] it was 2.15 µM; in the data set on CCRF-CEM [3] it was 1.62 µM; with MX1 [6], 3.46 µM; with HCT-116, 3.44 µM; in data set [7] it was 5.99 µM. For the same compound, the IC50 in [8] came to 11 µM; in data set [9] it was 11.7 µM; with PC-3 it was 6.45 µM; with MCF7, 15.4 µM. The entries for the “Ratio IC50” value in the data set with CCRF-CEM [4] and in the data set with CCRF-CEM [5] were 3.9 and 2.94, respectively. The result with Nucleic Acid [10] was Active.

For the compound `Cc1cc(NC(=O)Nc2ccc(N(CCCl)CCCl)cc2)c2ccccc2n1`, the outcome with NCI/ADR-RES, with MX1 [11], in the data set on MX1 [12] and with Nucleic Acid [10] was Active. In addition, the IC50 stood at 0.193 µM in the data set on CCRF-CEM [1]; 0.429 µM in the data set on CCRF-CEM [2]; 0.664 µM in the data set with CCRF-CEM [3]; 0.343 µM in the data set with MX1 [6]; 1.42 µM in the data set with HCT-116; 1.98 µM in data set [7]. Besides, the IC50 is 9.45 µM in [8], 9.02 µM in data set [9], 9.52 µM in the data set with PC-3 and 9.08 µM with MCF7. Further, the entries for the “Ratio IC50” value in the data set with CCRF-CEM [4] and with CCRF-CEM [5] were 2.2 and 3.4, respectively. Moreover, the Activity is 2% in the data set on Mus musculus [13]; “Non-toxic” in the data set on Mus musculus [14]; “Non-toxic” with Mus musculus [15]; “Dose-dependent effect” in the data set on Nucleic Acid [17]; 31.3% with Nucleic Acid [18]. Moreover, the half-life in data set [16] was 16.5 h.

For `N[C@@H](Cc1ccc(N(CCCl)CCCl)cc1)C(=O)O`, in the data set on Nucleic Acid [19], the Activity stood at 39.7%.

For `COc1cccc(-c2cc(NC(=O)Nc3ccc(N(CCCl)CCCl)cc3)c3cc(OC)ccc3n2)c1`, the IC50 is 0.362 µM with CCRF-CEM [1]; 0.588 µM with CCRF-CEM [2]; 0.557 µM in the data set with CCRF-CEM [3]; 1.83 µM in the data set on MX1 [6]; 3.69 µM in the data set with HCT-116; 5.69 µM in [7]. Further, the IC50 in [8] was determined as 3.82 µM; in [9] it was 4.73 µM; in the data set on PC-3, 5.88 µM; in the data set with MCF7 it was 3.04 µM. Moreover, the “Ratio IC50” value in the data set with CCRF-CEM [4] was 1.62; in the data set on CCRF-CEM [5], 1.53. Moreover, the result in the data set with MX1 [20] and in the data set on MX1 [21] was Active. Further, in the data set on Mus musculus [22], the Activity is 13%.

In the case of `COc1cccc(-c2cc(NC(=O)Nc3ccc(N(CCCl)CCCl)cc3)c3cc(N4CCCC4)ccc3n2)c1`, the IC50 in the data set on CCRF-CEM [1] came to 102 µM; in the data set on CCRF-CEM [2], 2.23 µM; with CCRF-CEM [3], 774 µM; with MX1 [6], 265 µM; in the data set on HCT-116, 168 µM; in [7], 3.81 µM. Moreover, the half-maximal inhibitory concentration (IC50) in [8] was 9.49 µM; in data set [9], 7.09 µM; with PC-3 it was 11.1 µM; with MCF7, 6.93 µM. In addition, the “Ratio IC50” value in the data set on CCRF-CEM [4] is 0.02; in the data set with CCRF-CEM [5] it was 7.58.

For the compound `O=C(NNc1ccc(N(CCCl)CCCl)cc1)Nc1cc(-c2ccccc2F)nc2ccc(N3CCCC3)cc12`, the IC50 with CCRF-CEM [1] is 0.152 µM; in the data set on CCRF-CEM [2], 0.261 µM; in the data set with CCRF-CEM [3] it was 0.312 µM; in the data set on MX1 [6], 2.26 µM; in the data set on HCT-116, 0.192 µM; in data set [7], 0.604 µM. Also, the concentration for half-maximal inhibition (IC50) in data set [8] stood at 0.511 µM; in data set [9], 0.694 µM; in the data set on PC-3, 0.954 µM; in the data set on MCF7 it was 1 µM. Also, the “Ratio IC50” value in the data set on CCRF-CEM [4] was determined as 1.72; in the data set on CCRF-CEM [5] it was 2.05.

As for `O=C(NNc1ccc(N(CCCl)CCCl)cc1)Nc1cc(-c2ccccc2)nc2ccccc12`, the IC50 was 0.578 µM with CCRF-CEM [1]; 0.908 µM in the data set on CCRF-CEM [2]; 1.22 µM in the data set on CCRF-CEM [3]; 1.78 µM with MX1 [6]; 1.26 µM in the data set with HCT-116; 4.38 µM in data set [7]. Further, the half-maximal inhibitory concentration (IC50) in data set [8] stood at 3.01 µM; in data set [9], 4.07 µM; with PC-3 it was 10.5 µM; in the data set on MCF7, 6.24 µM. Further, the “Ratio IC50” value is given as 1.57 with CCRF-CEM [4] and 2.11 with CCRF-CEM [5]. Moreover, the outcome in the data set with Nucleic Acid [10] was Active.
